In patent US12209080B2, “Polymorphic forms of kinase inhibitor compound, pharmaceutical composition containing same, preparation method therefor and use thereof” (EQUINOX SCIENCES, LLC, priority 2016, dated 2025):
≈ marks a conversion by molar mass, not a printed value.

Assays:
Assay type in all cases: physicochemical
[1] = Stability of the crystalline forms (HPLC, XRD, DSC); settings: for HPLC Maximum single impurity %: retention time (min) in brackets
Method: Experimental conditions: the samples were sealed and placed at 80° C. for 24 hours, and then placed in an open dish at 25° C./60% RH (relative humidity) and 40° C./75% RH for 7 days. Detection method: HPLC (only for the starting samples and samples placed at 80° C. for 24 hours), XRD, DSC.
In addition, the long-term stabilities of the crystalline form 1 for 12 months, 24 months, 36 months, and 48 months at 25° C./60% RH were also investigated.

[2] = Solubility of crystalline forms 1 and 2 in various media
Text: (§1) The moisture content, solubility and dissolution rate of the crystalline forms 1 and 2 were detected using the methods described above. The results are shown in Table 21, which indicate that the solubility, dissolution, and moisture content (total pharmaceutical properties) of the crystalline form 1 are higher than that of the crystalline form 2. Moreover, the crystalline forms 1 and 2 have the highest solubility in methanol.

[3] = Dissolution rate of crystalline forms 1 and 2
Text: as §1

## Cc1[nH]c(/C=C2\C(=O)Nc3ccc(F)cc32)c(C)c1C(=O)N[C@H]1CCN(C(=O)N(C)C)C1 [crystalline form 1, 5-[5-fluoro-2-oxo-1,2-dihydro-indole-(3Z)-ylidenemethyl]-2,4-dimethyl-1H-pyrrole-3-carboxylic acid ((S)-1-dimethylcarbamoyl-pyrrolidin-3-yl)-amide]
[1]; 0 day (starting sample)
  HPLC Purity %: 99.67%
  HPLC Maximum single impurity %: 0.22 (4.73) %
[1]; 12, 24, 36 and 48 months at 25° C./60% RH
  long-term stability of the crystalline form: substantially unchanged
[1]; sealed 80° C. 24 hours, open dish 25° C./60% RH and 40° C./75% RH for 7 days
  crystalline form and melting point by XRD and DSC: substantially unchanged
[1]; sealed, 80° C./24 h
  HPLC Purity %: 98.87%
  HPLC Maximum single impurity %: 1.03 (4.73) %
[2]; 1% Tween 80
  Solubility: 60 µg/mL (≈ 137 µM)
[2]; 1% sodium lauryl sulfate
  Solubility: 3480 µg/mL (≈ 7920 µM)
[2]; 2% sodium lauryl sulfate
  Solubility: 3790 µg/mL (≈ 8620 µM)
[2]; PEG 400
  Solubility: 3660 µg/mL (≈ 8330 µM)
[2]; acetonitrile
  Solubility: 680 µg/mL (≈ 1550 µM)
[2]; aqueous solution with pH of 1.0-7.5
  Solubility: 0.12 to 0.53 µg/mL
[2]; artificial gastric juice, simulated gastric fluid, thermodynamic from solid, second line of this heading (Table 21 r21)
  solubility at 4 h: 0.43 µg/mL (≈ 0.978 µM)
[2]; ethanol
  Solubility: 2460 µg/mL (≈ 5600 µM)
[2]; glycerin
  Solubility: 570 µg/mL (≈ 1300 µM)
[2]; methanol
  Solubility: 8170 µg/mL (≈ 18600 µM)
[3]
  Internal dissolution rate: 0.022 mg/(min · cm^2)
